This passage reports mutagenic call results from PubChem BioAssay AID1259407 (Chemical Carcinogenesis Research Information System (CCRIS), 2018).

Calls of active or inactive are those of the source. The rule behind the calls is not given here.

The series concerns CCRIS mutagenicity, Ames/micronucleus/aberration tests. Kind of series: CCRIS mutagenicity studies.
Setting [1] is: Test System: AMES SALMONELLA TYPHIMURIUM, Strain/Indicator: TA98, Metabolic Activation: NONE, Method: STANDARD PLATE.
The mark [2] stands for this setting: Test System: AMES SALMONELLA TYPHIMURIUM, Strain/Indicator: TA100, Metabolic Activation: NONE, Method: STANDARD PLATE.
The mark [3] stands for this setting: Test System: AMES SALMONELLA TYPHIMURIUM, Strain/Indicator: TA98, Metabolic Activation: RAT, LIVER, S-9, AROCLOR 1254, Method: STANDARD PLATE.
Where [4] appears, read: Test System: AMES SALMONELLA TYPHIMURIUM, Strain/Indicator: TA100, Metabolic Activation: RAT, LIVER, S-9, AROCLOR 1254, Method: STANDARD PLATE.

In the case of `Nc1cccc2nc3ccccc3c(N)c12`, the mutagenic call was “inactive; negative” (Test System: AMES SALMONELLA TYPHIMURIUM, Strain/Indicator: TA1535, Metabolic Activation: NONE, Method: PREINCUBATION); “active; positive” (Test System: AMES SALMONELLA TYPHIMURIUM, Strain/Indicator: TA1535, Metabolic Activation: RAT, LIVER, S-9, TETRACHLOROBIPHENYL, Method: PREINCUBATION); “active; positive” (Test System: AMES SALMONELLA TYPHIMURIUM, Strain/Indicator: TA1537, Metabolic Activation: NONE, Method: PREINCUBATION); “active; positive” (Test System: AMES SALMONELLA TYPHIMURIUM, Strain/Indicator: TA1537, Metabolic Activation: RAT, LIVER, S-9, TETRACHLOROBIPHENYL, Method: PREINCUBATION); “inactive; negative” (Test System: AMES SALMONELLA TYPHIMURIUM, Strain/Indicator: TA1538, Metabolic Activation: NONE, Method: PREINCUBATION); “active; positive” (Test System: AMES SALMONELLA TYPHIMURIUM, Strain/Indicator: TA1538, Metabolic Activation: RAT, LIVER, S-9, TETRACHLOROBIPHENYL, Method: PREINCUBATION). Also, the mutagenic call is, setting by setting: (Test System: AMES SALMONELLA TYPHIMURIUM, Strain/Indicator: TA1975, Metabolic Activation: RAT, LIVER, S-9, TETRACHLOROBIPHENYL, Method: PREINCUBATION) “active; positive”; (Test System: AMES SALMONELLA TYPHIMURIUM, Strain/Indicator: TA1977, Metabolic Activation: NONE, Method: PREINCUBATION) “active; positive”; (Test System: AMES SALMONELLA TYPHIMURIUM, Strain/Indicator: TA1977, Metabolic Activation: RAT, LIVER, S-9, TETRACHLOROBIPHENYL, Method: PREINCUBATION) “active; positive”; (Test System: AMES SALMONELLA TYPHIMURIUM, Strain/Indicator: TA1978, Metabolic Activation: RAT, LIVER, S-9, TETRACHLOROBIPHENYL, Method: PREINCUBATION) “active; positive”.

For the compound `COc1ccc(C(O)(c2cncnc2)C2CC2)cc1` (centres undefined), the mutagenic call (Test System: Ames Salmonella typhimurium, Strain/Indicator: TA98, Metabolic Activation: None, Method: Standard Plate) is “inactive; negative”; the mutagenic call (Test System: Ames Salmonella typhimurium, Strain/Indicator: TA98, Metabolic Activation: Rat, liver, S-9, Method: Standard Plate) was “inactive; negative”; the mutagenic call (Test System: Ames Salmonella typhimurium, Strain/Indicator: TA100, Metabolic Activation: None, Method: Standard Plate) was “inactive; negative”; the mutagenic call (Test System: Ames Salmonella typhimurium, Strain/Indicator: TA100, Metabolic Activation: Rat, liver, S-9, Method: Standard Plate) is “inactive; negative”; the mutagenic call (Test System: Ames Salmonella typhimurium, Strain/Indicator: TA1535, Metabolic Activation: None, Method: Standard Plate) is “inactive; negative”; the mutagenic call (Test System: Ames Salmonella typhimurium, Strain/Indicator: TA1535, Metabolic Activation: Rat, liver, S-9, Method: Standard Plate) was “inactive; negative”. The mutagenic call reads like this: (Test System: Ames Salmonella typhimurium, Strain/Indicator: TA1537, Metabolic Activation: None, Method: Standard Plate) “inactive; negative”; (Test System: Ames Salmonella typhimurium, Strain/Indicator: TA1537, Metabolic Activation: Rat, liver, S-9, Method: Standard Plate) “inactive; negative”; (Test System: Ames Salmonella typhimurium, Strain/Indicator: TA1538, Metabolic Activation: None, Method: Standard Plate) “inactive; negative”; (Test System: Ames Salmonella typhimurium, Strain/Indicator: TA1538, Metabolic Activation: Rat, liver, S-9, Method: Standard Plate) “inactive; negative”; (Test System: Mouse lymphoma, Strain/Indicator: L5178Y (TK+/TK-), Metabolic Activation: None, Method: Suspension/Plate) “inactive; negative”; (Test System: Mouse lymphoma, Strain/Indicator: L5178Y (TK+/TK-), Metabolic Activation: S-9 of unspecified origin, Method: Suspension/Plate) “inactive; negative”.

As to `O=[N+]([O-])c1cccc2c1-c1ccc3ccc4cccc5cc-2c1c3c45`, the mutagenic call reads like this: (Test System: AMES SALMONELLA TYPHIMURIUM, Strain/Indicator: TA98, Metabolic Activation: RAT, LIVER, S-9, AROCLOR 1254, Method: PREINCUBATION) “active; positive”; (Test System: AMES SALMONELLA TYPHIMURIUM, Strain/Indicator: TA100, Metabolic Activation: RAT, LIVER, S-9, AROCLOR 1254, Method: PREINCUBATION) “active; positive”.

As for `Cc1occc(=O)c1[O-].Cc1occc(=O)c1[O-].Cc1occc(=O)c1[O-].[Cr+3]`, the mutagenic call runs as follows: (Test System: AMES SALMONELLA TYPHIMURIUM, Strain/Indicator: TA92, Metabolic Activation: NONE, Method: STANDARD PLATE) “inactive; negative”; under setting [1], “inactive; negative”; under setting [2], “inactive; negative”; (Test System: AMES SALMONELLA TYPHIMURIUM, Strain/Indicator: TA104, Metabolic Activation: NONE, Method: STANDARD PLATE) “inactive; negative”.

Turning to `O=C1c2ccc(O)c(O)c2C(=O)c2c(O)ccc(O)c21`, the mutagenic call is “inactive; negative” under setting [3]; “inactive; negative” under setting [2]; “inactive; negative” under setting [4]; “inactive; negative” (Test System: AMES SALMONELLA TYPHIMURIUM, Strain/Indicator: TA1535, Metabolic Activation: NONE, Method: STANDARD PLATE); “inactive; negative” (Test System: AMES SALMONELLA TYPHIMURIUM, Strain/Indicator: TA1535, Metabolic Activation: RAT, LIVER, S-9, AROCLOR 1254, Method: STANDARD PLATE); “active; positive” (Test System: AMES SALMONELLA TYPHIMURIUM, Strain/Indicator: TA1537, Metabolic Activation: NONE, Method: STANDARD PLATE). The mutagenic call reads like this: (Test System: AMES SALMONELLA TYPHIMURIUM, Strain/Indicator: TA1537, Metabolic Activation: RAT, LIVER, S-9, AROCLOR 1254, Method: STANDARD PLATE) “active; positive”; (Test System: AMES SALMONELLA TYPHIMURIUM, Strain/Indicator: TA1538, Metabolic Activation: RAT, LIVER, S-9, AROCLOR 1254, Method: STANDARD PLATE) “inactive; negative”.

On to `c1ccc2c(c1)ccc1cc3ccc4ccccc4c3nc12`, for which the mutagenic call (Test System: AMES SALMONELLA TYPHIMURIUM, Strain/Indicator: TA100, Metabolic Activation: RAT, LIVER, S-9, PHENOBARBITAL AND 5,6-BENZOFLAVONE, Method: STANDARD PLATE) was “active; positive”.

Regarding `COCCOCCOP1(OCCOCCOC)=NP(OCCOCCOC)(OCCOCCOC)=NP(OCCOCCOC)(OCCOCCOC)=N1`, the mutagenic call was “inactive; negative” under setting [1], “inactive; negative” under setting [3], “inactive; negative” under setting [2] and “inactive; negative” under setting [4].

`CN(C)Cc1ccccc1`: the mutagenic call (Test System: AMES SALMONELLA TYPHIMURIUM, Strain/Indicator: TA98, Metabolic Activation: NONE, Method: PREINCUBATION) was “inactive; negative”; the mutagenic call (Test System: AMES SALMONELLA TYPHIMURIUM, Strain/Indicator: TA98, Metabolic Activation: RAT, LIVER, S-9, PCB, Method: PREINCUBATION) is “inactive; negative”; the mutagenic call (Test System: AMES SALMONELLA TYPHIMURIUM, Strain/Indicator: TA100, Metabolic Activation: NONE, Method: PREINCUBATION) was “inactive; negative”; the mutagenic call (Test System: AMES SALMONELLA TYPHIMURIUM, Strain/Indicator: TA100, Metabolic Activation: RAT, LIVER, S-9, PCB, Method: PREINCUBATION) is “inactive; negative”.

For the compound `CC(=C/C=C/C(C)=C/C=C/C=C(C)/C=C/C=C(C)/C=C/C(=O)O)/C=C/C(=O)O`, the mutagenic call is “inactive; negative” (Test System: AMES SALMONELLA TYPHIMURIUM, Strain/Indicator: TA97, Metabolic Activation: NONE, Method: PREINCUBATION); “inactive; negative” (Test System: AMES SALMONELLA TYPHIMURIUM, Strain/Indicator: TA97, Metabolic Activation: S-9, Method: PREINCUBATION); “inactive; negative” (Test System: AMES SALMONELLA TYPHIMURIUM, Strain/Indicator: TA102, Metabolic Activation: NONE, Method: PREINCUBATION); “inactive; negative” (Test System: AMES SALMONELLA TYPHIMURIUM, Strain/Indicator: TA102, Metabolic Activation: S-9, Method: PREINCUBATION).
